Tested on: ascitic form of a transplantable mouse liver tumor (TLT)
Experiment: Survival (increase of life span) of mice bearing the intraperitoneally transplanted ascitic TLT tumor
Assay type: in vivo, NMRI male mice
Conditions: for therapeutic effect (character of chemotherapy potentiating effect): cytotoxic drug combined with dietary FOS or inulin
Excerpt: Viable, neoplastic cells (10^6) from the ascitic form of a transplantable mouse liver tumor (TLT) (Taper, 1966 and Cappucino, 1966) were intraperitoneally transplanted into 12 per group young adult NMRI male mice weighing about 30 g, supplied by "Animalerie Facultaire", UCL, Brussels. Mice of the experimental groups were fed with a basal diet supplemented with 15 % FOS or inulin starting 7 days before tumor transplantation up to the end of the experiment. Control animals received the basal diet for experimental animals AO4 furnished by UAR, Villemoisson sur Orge, France, and water ad libitum.
A single, subtherapeutic dose of cytotoxic drugs was intraperitoneally injected 48 hours after intraperitoneal TLT tumor transplantation at following doses: endoxan 80 mg/kg; adriamycin 0.1 mg/kg; oncovin 0.5 mg/kg and 5-fluorouracil 40 mg/kg.
The criteria for the evaluation of results were the mortality rates expressed by mean survival time (MST) and the percentage of increase of life span (ILS) in experimental groups compared with the controls, calculated according to the NCI instructions (Geron et al., 1972). The results of each experiment were confirmed by another experiment performed at another time and were cumulatively calculated (as presented in Table 1). The results concerning the survival rates of mice bearing the ascitic form of a TLT tumor, observed in 2 separately performed experiments on each type of anti-cancer drug (12 mice per group), are cumulatively presented in Table 1 below.
In a further experiment, carried out in a similar manner as the previous experiment, the effects were examined of a composition according to the invention, containing a combination of the anti-metabolite anti-cancer drug methotrexate and inulin or FOS, in comparison with the effects of the single components. The effects were evaluated via the survival criteria of N.M.RI mice bearing ascitic TLT tumors, treated with a single i.p. dose of 20 mg/kg methotrexate (10 investigated mice in each group) and the results are presented in Table 2 below.

[1] = increase of life span vs own untreated control group, 15 % FOS or inulin in diet from 7 days before transplantation, single i.p. dose 48 hours after transplantation: endoxan 80 mg/kg, adriamycin 0.1 mg/kg, oncovin 0.5 mg/kg, 5-fluorouracil 40 mg/kg, 2 experiments cumulated

| Compound | therapeutic effect (character of chemotherapy potentiating effect) | ILS (%) [1] [%] | ILS (%) (Table 2, methotrexate single i.p. dose of 20 mg/kg, dietary FOS or inulin, 10 mice in each group) |
| --- | --- | --- | --- |
| COc1cccc2c1C(=O)c1c(O)c3c(c(O)c1C2=O)C[C@@](O)(C(=O)CO)C[C@@H]3O[C@H]1C[C@H](N)[C@H](O)[C@H](C)O1 [Adriamycin, adriamycin] | additive | 14.7 | – |
| CN(Cc1cnc2nc(N)nc(N)c2n1)c1ccc(C(=O)N[C@@H](CCC(=O)O)C(=O)O)cc1 [methotrexate] | – | – | 2 |
| O=c1[nH]cc(F)c(=O)[nH]1 [5-Fluorouracil, 5-fluorouracil] | synergistic | 18.75 | – |
| O=P1(N(CCCl)CCCl)NCCCO1 (stereo not drawn) [Endoxan, cyclophosphamide] | additive | 0 | – |
| CC[C@]1(O)C[C@H]2CN(CCc3c([nH]c4ccccc34)[C@@](C(=O)OC)(c3cc4c(cc3OC)N(C=O)[C@H]3[C@@](O)(C(=O)OC)[C@H](OC(C)=O)[C@]5(CC)C=CCN6CC[C@]43[C@@H]65)C2)C1 [Oncovin, vincristine sulphate] | additive | 33.33 | – |

— EP1079840B1, “SYNERGISTIC COMPOSITION OF INULIN AND AN ANTI-CANCER DRUG FOR USE IN THE TREATMENT OF CANCER” (Tiense Suikerraffinaderij N.V. (Raffinerie Tirlemontoise …, priority 1998, dated 1999)
